The test system of data set [1] is EPO receptor on MEL cells. The data set is described as follows: Erythropoietin surface binding assay on MEL cell monolayers. The conditions noted are these: single affinity; radioiodinated human EPO, 8 hours at 4° C.; read-out: affinity of MEL cell EPO-R for EPO. On the set-up: species or system mouse. How it is done:
FIG. 4 is a saturation curve showing the binding of iodinated EPO to MEL cells. Non-specific binding was determined by co-incubation with 100 nM of unlabeled EPO. The MEL cells were grown on fibronectin monolayers and were incubated with various concentrations of radioiodinated human EPO for eight hours at 4° C. The specific binding is shown as the difference between total and non-specific binding. The inset is a Scatchard plot of the same data. […] For these experiments, MEL cells, grown as monolayers on fibronectin coated dishes, were incubated for eight hours at 4° C. with ^125 I EPO. Specific binding and nonspecific binding of [^125 I]-EPO, measured in the presence of 100 nM unlabeled EPO was determined. Nonspecific binding was approximately half of the total (=specific plus nonspecific) binding. Because of the relatively low number of EPO-R on MEL cells and, therefore, the small specific binding observed at low concentrations of [^125 I-EPO], in the 10-50 pM range, it is not possible to rule out a high affinity EPO-R in this range. […] Monolayers were washed, solubilized, and counted in the gamma counter as described. […] The radioactivity bound in the assays with excess unlabeled erythropoietin (nonspecific binding) was subtracted from the total binding to yield the specific binding. […]

In data set [2] the test system is recombinant murine EPO receptor expressed in COS cells. The experiment in a line: Erythropoietin surface binding assay on COS-EPO-R transfectants (clone 190). Details: species or system mouse. As for the experimental part:
FIG. 5 is a saturation curve showing the binding of iodinated EPO to cells expressing recombinant EPO-receptors. COS-EPO-R transfectants were incubated with various concentrations of radioiodinated human EPO for eight hours at 4° C. Non-specific binding was determined by incubating radioiodinated EPO with COS-1 monolayers, mock treated with the pXM vector (without the EPO-R cDNA insert). Also, for comparison, one binding point was determined for [^125 I]-EPO binding to COS EPO-R transfectants in the presence of […] unlabeled EPO. The inset is a Scatchard plot of the same data. Binding was compared for COS transfectants expressing EPO-R (specific binding) versus COS cells mock-transfected with the pXM plasmid without the EPO-R cDNA insert (non-specific binding). At all EPO concentrations, specific binding was approximately […] the binding to mock-transfected cells. By the above criterion, over 85% of this binding is deemed specific, though the "non-specific" binding could represent low-affinity binding to the transfected EPO receptor. […] Confluent monolayers of MEL cells, grown in 60 mm bacteriophage petri dishes pre-coated with fibronectin, were prepared (Patel and Lodish, supra (1987)). Confluent monolayers of COS-1 cells, transfected by the DEAE dextran method 72 hours before the binding assay with either two micrograms of clone 190 cDNA in pXM or two micrograms of pXM without cDNA insert (mock-transfected) per monolayer, were prepared. Monolayers were washed at 4° C. with HBS/Hepes three times. Radioiodinated EPO (10 pM to 2nM range) was added to each monolayer in LBB. Incubations were performed at 4° C. for eight hours with gentle rocking. Monolayers were washed, solubilized, and counted in the gamma counter as described. Assays for nonspecific binding were performed in which the assay mixture contained a 100-fold excess 1(100 nM) of unlabeled erythropoietin. The radioactivity bound in the assays with excess unlabeled erythropoietin (nonspecific binding) was subtracted from the total binding to yield the specific binding. All binding assays were run in duplicate.

Data set [3] has as its target human EPO receptor. The experiment in a line: Erythropoietin surface binding assay on stable CHO lines expressing the human EPO receptor. The conditions noted are these: one hour at 37° C. How it is done: Confluent monolayers of MEL cells, grown in 60 mm bacteriophage petri dishes pre-coated with fibronectin, were prepared (Patel and Lodish, supra (1987)). Confluent monolayers of COS-1 cells, transfected by the DEAE dextran method 72 hours before the binding assay with either two micrograms of clone 190 cDNA in pXM or two micrograms of pXM without cDNA insert (mock-transfected) per monolayer, were prepared. Monolayers were washed at 4° C. with HBS/Hepes three times. Radioiodinated EPO (10 pM to 2nM range) was added to each monolayer in LBB. Incubations were performed at 4° C. for eight hours with gentle rocking. Monolayers were washed, solubilized, and counted in the gamma counter as described. Assays for nonspecific binding were performed in which the assay mixture contained a 100-fold excess 1(100 nM) of unlabeled erythropoietin. The radioactivity bound in the assays with excess unlabeled erythropoietin (nonspecific binding) was subtracted from the total binding to yield the specific binding. All binding assays were run in duplicate. The level of cell surface expression of the human EPO receptor was determined by the erythropoietin surface binding assay, described above for the expression of the murine EPO receptor in COS-1 cells, except that radioiodinated EPO, from 10 pM to 2 nM, was bound for one hour at 37° C. in the presence of 0.02% (w/v) sodium azide and 1% (v/v) aprotinin.

Data set [4] concerns the target EPO receptor. The conditions noted are these: most cell surface binding studies; read-out: Kd, single class of binding sites; cited from earlier work.
Data set [5] deals with EPO-responsive splenic erythroblasts. The conditions noted are these: FVA-injected mice, cited from earlier work.
The conditions of data set [6]: purified, homogeneous erythropoietin; cited from earlier work.
Data set [7] relates to FDCPE cells. The data set is described as follows: Inhibition of the EPO response of FDCPE cells by secreted EPO receptor. Type of data set: cell-based, mouse. The conditions noted are these: 0.4, 0.8 and 1 u/ml EPO; serial dilutions of CHO conditioned media (ca. 0.5 μg/ml secreted receptor). How it is done:
The FDCPE and 32DE cell lines were further characterized by their dose dependent response to EPO. A 96 well plate was seeded with 1×10^4 cells/well and incubated with EPO (0.0001 to 10 u/ml) for 24 hours and then labelled with [^3 H]-thymidine for 4hr, the cells were collected and counted for thymidine incorporation. The cells respond to EPO dose dependent manner from 0.01 to 1 u/ml.
FDCPE cells were incubated and assayed with either 0.4, 0.8 and 1 u/ml of EPO as described above but also with serial dilutions of media from a CHO line expressing the secreted EPO receptor (ca. 0.5 μg/ml).

We go through two molecules from patent US5278065A, “Recombinant DNA endoding an erythropoietin receptor” (Genetics Institute, Inc., priority 1991, dated 1994).

Like-named read-outs stand apart in the source and are kept apart here.

In the case of erythropoietin [EPO], the Kd is roughly 0.24 nM in data set [1]; 0.03 nM in data set [2] (COS transfectants, Scatchard analysis, 8 hours at 4° C., read-out: dissociation constant, high affinity receptor); 0.21 nM in data set [2] (COS transfectants, Scatchard analysis, 8 hours at 4° C., read-out: dissociation constant, low affinity receptor); 0.05 nM in data set [2] (cell type not stated, read-out: dissociation constant of the high affinity receptor); 0.126 nM in data set [3] (CHO cell line 9'.250, 34% of sites, Scatchard analysis, read-out: affinity for EPO, higher affinity sites); 0.66 nM in data set [3] (CHO cell line 9'.250, Scatchard analysis, read-out: affinity for EPO, remainder of sites). Further, the Kd is 3 nM in data set [3] (CHO cell line 10'.1.25, read-out: affinity for EPO, single affinity); roughly 0.8 nM in data set [4]; 0.1 nM in data set [5] (read-out: dissociation constant, high affinity binding site); 0.8 nM in data set [5] (read-out: dissociation constant, low affinity binding site). Besides, the specific activity entry in data set [6] was “at least 160,000 IU per absorbance unit at 280 nanometers”.

B1: secreted EPO receptor: secreted human erythropoietin receptor lacking transmembrane and cytoplasmic domains, tested as conditioned media from a CHO line (protein, UniProt P19235 25-250, looked up)
extracellular domain: APPPNLPDPKFESKAALLAARGPEELLCFTERLEDLVCFWEEAASAGVGPGNYSFSYQLEDEPWKLCRLHQAPTARGAVRFWCSLPTADTSSFVPLELRVTAASGAPRYHRVIHINEVVLLDAPVGLVARLADESGHVVLRWLPPPETPMTSHIRYEVDVSAGNGAGSVQRVEILEGRTECVLSNLRGRTRYTFAVRARMAEPSFGGFWSAWSEPVSLLTPSDLDP
modifications: extracellular domain
notes: secreted human erythropoietin receptor lacking transmembrane and cytoplasmic domains, tested as conditioned media from a CHO line
Turning to B1, the “inhibition of [3H]-thymidine incorporation into FDCPE cells” value in data set [7] was “inhibited the incorporation of [^3 H]-thymidine into the FDCPE cells”.
